Target: SARS-CoV-2 Papain like protease (PLpro) (Severe acute respiratory syndrome coronavirus 2 (2019-nCoV) (SARS-CoV-2), UniProt P0DTD1)
Assay: Papain Like Protease (PLpro) biochemical assay with profluorogenic substrate Z-RLRGG-AMC
Settings: SARS-CoV-2 PLpro 6.25 nM, 25 μM Z-RLRGG-AMC substrate, 60 minute reaction; read-out: IC50

Row | Structure (SMILES) | IC50 [nM]
1 | Cc1ccc(NC(=O)[C@H]2CCCCN2)cc1C(=O)NC(C)c1cc(N)nc2ccccc12 (mixture of isomers) [Example 25, (R)—N-(3-(((RS)-1-(2-aminoquinolin-4-yl)ethyl)carbamoyl)-4-methylphenyl)piperidine-2-carboxamide] | 100
2 | Cc1ccc(NC(=O)[C@H]2CCCCN2)cc1C(=O)NC(C)c1cc(-c2ccn[nH]2)cc2ccccc12 (mixture of isomers) [Example 65, (2R)-N-(3-((1-(3-(1H-pyrazol-5-yl)naphthalen-1-yl)ethyl)carbamoyl)-4-methylphenyl)piperidine-2-carboxamide] | 21
3 | COCC(OCc1cscn1)c1ccc(C(=O)N[C@H](C)c2cc(-c3cnn(C)c3)nc3ccccc23)c(C)c1 (mixture of isomers) [Example 331, 4-(2-methoxy-1-(thiazol-4-ylmethoxy)ethyl)-2-methyl-N-((R)-1-(2-(1-methyl-1H-pyrazol-4-yl)quinolin-4-yl)ethyl)benzamide] | < 1
4 | Cc1ccc(CN)cc1C(=O)N[C@H](C)c1cc(-c2cnn(C)c2)cc2ccccc12 (single isomer, unassigned) [Example 8] | 25
5 | Cc1ccc(CN)cc1C(=O)N[C@H](C)c1cc(-c2cnn(C)c2)cc2ccccc12 (single isomer, unassigned) [Example 9] | 3920
6 | Cc1ccc(NC(=O)[C@H]2CCCCN2)cc1C(=O)N[C@H](C)c1cc(N)nc2ccccc12 (single isomer, unassigned) [Example 27, (R)—N-(3-(((R*)-1-(2-aminoquinolin-4-yl)ethyl)carbamoyl)-4-methylphenyl)piperidine-2-carboxamide] | 57
7 | Cc1ccc(NC(=O)[C@H]2CCCCN2)cc1C(=O)N[C@H](C)c1cc(N)nc2ccccc12 (single isomer, unassigned) [Example 28, (R)—N-(3-(((R*)-1-(2-aminoquinolin-4-yl)ethyl)carbamoyl)-4-methylphenyl) piperidine-2-carboxamide] | 5450
8 | Cc1ccc(NC(=O)[C@H]2CCCCN2)cc1C(=O)N[C@H](C)c1cc(-n2ccnn2)nc2ccccc12 (single isomer, unassigned) [Example 29, (R)—N-(3-(((R*)-1-(2-(1H-1,2,3-triazol-1-yl)quinolin-4-yl)ethyl)carbamoyl)-4-methylphenyl)piperidine-2-carboxamide] | 100
9 | Cc1ccc(NC(=O)[C@H]2CCCCN2)cc1C(=O)N[C@H](C)c1cc(-n2ccnn2)nc2ccccc12 (single isomer, unassigned) [Example 30, (R)—N-(3-(((R*)-1-(2-(1H-1,2,3-triazol-1-yl)quinolin-4-yl)ethyl)carbamoyl)-4-methylphenyl)piperidine-2-carboxamide] | 7730
10 | Cc1ccc(NC(=O)[C@H]2CCCCN2)cc1C(=O)NC(C)c1cc(-c2cn[nH]c2)cc2ccccc12 (single isomer, unassigned) [Example 52, (R)—N-(3-(((R*)-1-(3-(1H-pyrazol-4-yl)naphthalen-1-yl)ethyl)carbamoyl)-4-methylphenyl)piperidine-2-carboxamide] | 11
11 | Cc1ccc(NC(=O)[C@H]2CCCCN2)cc1C(=O)NC(C)c1cc(-c2cn[nH]c2)cc2ccccc12 (single isomer, unassigned) [Example 53, (R)—N-(3-(((R*)-1-(3-(1H-pyrazol-4-yl)naphthalen-1-yl)ethyl)carbamoyl)-4-methylphenyl)piperidine-2-carboxamide] | 478
12 | Cc1ccc(NC(=O)[C@H]2CCCCN2)cc1C(=O)N[C@H](C)c1cc(-c2cnn(C)c2)cc2ccccc12 (single isomer, unassigned) [Example 66] | 8
13 | Cc1ccc(NC(=O)[C@H]2CCCCN2)cc1C(=O)N[C@H](C)c1cc(-c2cnn(C)c2)cc2ccccc12 (single isomer, unassigned) [Example 67] | 272
14 | Cc1ccc(NC(=O)[C@H]2CCCCN2)cc1C(=O)N[C@H](C)c1cc(-c2ccn[nH]2)cc2ccccc12 (single isomer, unassigned) [Example 68] | 9
15 | Cc1ccc(NC(=O)[C@H]2CCCCN2)cc1C(=O)N[C@H](C)c1cc(-c2ccn[nH]2)cc2ccccc12 (single isomer, unassigned) [Example 69] | 908
16 | Cc1ccc(N2C[C@H]3C[C@@H]2CN3C)cc1C(=O)N[C@H](C)c1cc(-c2cnn(C)c2)nc2ccccc12 (single isomer, unassigned) [Example 280, 2-methyl-N—((R)-1-(2-(1-methyl-1H-pyrazol-4-yl)quinolin-4-yl)ethyl)-5-((1R*,4R*)-5-methyl-2,5-diazabicyclo[2.2.1]heptan-2-yl)benzamide] | 17
17 | Cc1ccc(N2C[C@H]3C[C@@H]2CN3C)cc1C(=O)N[C@H](C)c1cc(-c2cnn(C)c2)nc2ccccc12 (single isomer, unassigned) [Example 281, 2-methyl-N—((R)-1-(2-(1-methyl-1H-pyrazol-4-yl)quinolin-4-yl)ethyl)-5-((1R*,4R*)-5-methyl-2,5-diazabicyclo[2.2.1]heptan-2-yl)benzamide] | 3
18 | COCC(OCc1cscn1)c1ccc(C(=O)NC2(c3cc(-c4cnn(C)c4)nc4ccccc34)CC2)c(C)c1 (single isomer, unassigned) [Example 324] | < 1
19 | COCC(OCc1cscn1)c1ccc(C(=O)NC2(c3cc(-c4cnn(C)c4)nc4ccccc34)CC2)c(C)c1 (single isomer, unassigned) [Example 325] | 1
20 | COC[C@@H](OCc1cscn1)c1ccc(C(=O)N[C@H](C)c2cc(-c3cnn(C)c3)nc3ccccc23)c(C)c1 (single isomer, unassigned) [Example 332, 4-((R*)-2-methoxy-1-(thiazol-4-ylmethoxy)ethyl)-2-methyl-N-((R)-1-(2-(1-methyl-1H-pyrazol-4-yl)quinolin-4-yl)ethyl)benzamide] | 2

Row | Structure (SMILES) | IC50 [nM]
21 | COC[C@H](OCc1cscn1)c1ccc(C(=O)N[C@H](C)c2cc(-c3cnn(C)c3)nc3ccccc23)c(C)c1 (single isomer, unassigned) [Example 333, 4-((R*)-2-methoxy-1-(thiazol-4-ylmethoxy)ethyl)-2-methyl-N-((R)-1-(2-(1-methyl-1H-pyrazol-4-yl)quinolin-4-yl)ethyl)benzamide] | < 1
22 | COC[C@@H](OCc1cscn1)c1ccc(C(=O)NC2(c3cc(-c4cnn(C)c4)cc4ncccc34)CC2)c(C)c1 (single isomer, unassigned) [Example 334] | < 1
23 | COC[C@H](OCc1cscn1)c1ccc(C(=O)NC2(c3cc(-c4cnn(C)c4)cc4ncccc34)CC2)c(C)c1 (single isomer, unassigned) [Example 335] | < 1
24 | COC[C@@H](OCc1cscn1)c1ccc(C(=O)NC2(c3cc(-c4cc(C(=O)N(C)C)n[nH]4)nc4ccccc34)CC2)c(C)c1 (single isomer, unassigned) [Example 336] | < 1
25 | COC[C@H](OCc1cscn1)c1ccc(C(=O)NC2(c3cc(-c4cc(C(=O)N(C)C)n[nH]4)nc4ccccc34)CC2)c(C)c1 (single isomer, unassigned) [Example 337] | < 1
26 | COC[C@H](OCc1cocn1)c1ccc(C(=O)NC2(c3cc(-c4cnn(C)c4)nc4ccccc34)CC2)c(C)c1 (single isomer, unassigned) [Example 338] | 3
27 | COC[C@@H](OCc1cocn1)c1ccc(C(=O)NC2(c3cc(-c4cnn(C)c4)nc4ccccc34)CC2)c(C)c1 (single isomer, unassigned) [Example 339] | < 1
28 | COC[C@H](OCc1cocn1)c1ccc(C(=O)NC2(c3cc(-c4cnn(C)c4)cc4ncccc34)CC2)c(C)c1 (single isomer, unassigned) [Example 340] | 2
29 | COC[C@@H](OCc1cocn1)c1ccc(C(=O)NC2(c3cc(-c4cnn(C)c4)cc4ncccc34)CC2)c(C)c1 (single isomer, unassigned) [Example 355] | < 1
30 | COC[C@H](OCc1cocn1)c1ccc(C(=O)NC2(c3cc(-c4cnn(C)c4)cc4ncccc34)CC2)c(C)c1 (single isomer, unassigned) [Example 356] | 2
31 | COC[C@H](OCc1cocn1)c1ccc(C(=O)NC2(c3cc(-c4cc(C(=O)N(C)C)n[nH]4)cc4ncccc34)CC2)c(C)c1 (single isomer, unassigned) [Example 359] | < 1
32 | COC[C@@H](OCc1cocn1)c1ccc(C(=O)NC2(c3cc(-c4cc(C(=O)N(C)C)n[nH]4)cc4ncccc34)CC2)c(C)c1 (single isomer, unassigned) [Example 360] | 1
33 | COC[C@H](OCc1cscn1)c1ccc(C(=O)NC2(c3cc(-c4cc(C(=O)N(C)C)n[nH]4)cc4ncccc34)CC2)c(C)c1 (single isomer, unassigned) [Example 361] | < 1
34 | COC[C@@H](OCc1cocn1)c1ccc(C(=O)NC2(c3cc(-c4cnn(C)c4)cc4nc(C)ccc34)CC2)c(C)c1 (single isomer, unassigned) [Example 365] | < 1
35 | Cc1ccccc1C(=O)NC(C)c1cc(CC2CCOCC2)nc2ccccc12 (stereo in doubt) [Example 152, 2-methyl-N-[(1R)-1-{2-[(oxan-4-yl)methyl]quinolin-4-yl}ethyl]benzamide] | 623
36 | CCCc1cc(C(C)NC(=O)c2ccccc2C)c2ccccc2n1 (stereo in doubt) [Example 153, 2-methyl-N-[(1R)-1-(2-propylquinolin-4-yl)ethyl]benzamide] | 311
37 | Cc1ccccc1C(=O)NC(C)c1cc(C2CC(F)(F)C2)nc2ccccc12 (stereo in doubt) [Example 154, N-{(1R)-1-[2-(3,3-difluorocyclobutyl)quinolin-4-yllethyl}-2-methylbenzamide] | 988
38 | Cc1ccccc1C(=O)NC(C)c1cc(C2CCOCC2)nc2ccccc12 (stereo in doubt) [Example 155, 2-methyl-N-{(1R)-1-[2-(oxan-4-yl)quinolin-4-yl]ethyl}benzamide] | 581
39 | Cc1ccccc1C(=O)NC(C)c1cc(CN2CCCC2=O)nc2ccccc12 (stereo in doubt) [Example 156, 2-methyl-N-[(1R)-1-{2-[(2-oxopyrrolidin-1-yl)-methyl]quinolin-4-yl}ethyl]benzamide] | 7220
